The source of these data is patent publication US8604225B2, “Method of producing hydroxymethyl-furfural” (Novozymes, A/S, priority 2010, dated 2013).

Like-named read-outs stand apart in the source and are kept apart here.

Series [1] can be described thus: HMF distribution between organic extraction solvent and aqueous phase. As to conditions: 30 wt % fructose, B(OH)3 and NaCl, organic:aqueous 4:1, 150° C., time not given. The format is physicochemical. How it is done: An aqueous solution containing 30 wt % fructose (3 mL, 5.7 mmol) was mounted in an Ace vial pressure tube (stable to ˜20 Bar) and solid B(OH)3 (0.3 g, 5 mmol) and NaCl (0.15 g, 3 mmol) were added to the solution. Different organic extraction solvent were added resulting in a organic:aqueous volume ratio of 4:1. The tube with the reaction mixture was placed in a preheated oil bath for a specified time under magnetic stirring (420 rpm) at a 150° C. (reaction times were measured after a stable oil bath temperature had been reached). After the reaction, the tube was removed from the oil bath and cooled to room temperature before a sample was taken for analysis. A sample of the reaction mixture was collected and filtered through a syringe filter (0.45 μm PTFE), mixed with an internal standard (i-PrOH) and analyzed via HPLC.
The R value indicated in table 10 is the HMF distribution obtained between the MIBK phase and the aqueous phase, i.e. [HMF]MIBK/[HMF]aq.

The nature of series [2]: HMF distribution between MIBK phase and aqueous phase with different salts and boric acid. The format is physicochemical. As to conditions: 30 wt % fructose, B(OH)3 0.3 g and salt 3 mmol (anion) in 3 mL, MIBK:aqueous 4:1, 150° C. 45 min. How it is done: An aqueous solution containing 30 wt % fructose (3 mL, 5.7 mmol) was mounted in an Ace vial pressure tube (stable to ˜20 Bar) and solid B(OH)3 (0.3 g, 5 mmol) and solid salt (3 mmol with respect to the anion) were added to the solution. MIBK was added as extraction solvent so that an organic:aqueous volume ratio of 4:1 was obtained. The tube with the reaction mixture was placed in a preheated oil bath for a specified time under magnetic stirring (420 rpm) at a 150° C. for 45 min (reaction times were measured after a stable oil bath temperature had been reached). After the reaction, the tube was removed from the oil bath and cooled to room temperature before a sample was taken for analysis. A sample of the reaction mixture was collected and filtered through a syringe filter (0.45 μm PTFE), mixed with an internal standard (i-PrOH) and analyzed via HPLC.
The R value indicated in table 9 is the HMF distribution obtained between the MIBK phase and the aqueous phase, i.e. [HMF]MIBK/[HMF]aq

The target of series [3] is immobilized glucose isomerase (Sweetzyme™) (Streptomyces murinus, UniProt P37031). As to conditions: for glucose isomerase performance at high salt concentration: as shown in example 12; for stability of Sweetzyme™ in the presence of the salt: conclusion of example 12.
immobilized glucose isomerase (Sweetzyme™), sequence (P37031 whole entry): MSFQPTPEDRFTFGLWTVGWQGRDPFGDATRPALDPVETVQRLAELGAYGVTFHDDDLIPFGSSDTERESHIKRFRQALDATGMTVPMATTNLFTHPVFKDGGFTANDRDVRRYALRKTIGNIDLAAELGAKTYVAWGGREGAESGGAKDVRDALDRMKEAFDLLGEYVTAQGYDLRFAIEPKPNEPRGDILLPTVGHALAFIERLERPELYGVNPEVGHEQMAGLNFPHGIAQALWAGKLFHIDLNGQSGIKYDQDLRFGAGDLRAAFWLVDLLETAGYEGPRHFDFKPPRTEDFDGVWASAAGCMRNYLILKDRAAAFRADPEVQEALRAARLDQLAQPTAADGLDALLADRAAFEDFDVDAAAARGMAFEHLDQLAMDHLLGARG
Description: 3 gram immobilized glucose isomerase (Sweetzyme™) was loaded in a lab-scale column heated to 60° C. and a substrate flow of 50 gram/hour was applied. […] Samples were collected on a regular basis for HPLC analysis and the enzyme activity was calculated according to the following equation (Jorgensen, O. B., et al., Starch-Starke, 1988. 40(8), 307-313):
[formula] where: A: specific activity of immobilized enzyme (micromol/min/g enzyme) (IGIU/g: Immobilized Glucose Isomerase Units/g) 0.926: unit conversion factor Fw: Flow rate of syrup (g/h) w: Weight of enzyme (g) DP1: Inlet % of (glucose+fructose) in dry substance (100 at analytical conditions) DS: Dry substance content (%) X: Conversion=outlet % fructose/DP1 Xi: inlet % fructose/DP1 Xe: X at equilibrium (0.51 at 60° C.) DP1, Xi and Xe were assumed constant with following values: DP1: 99.7 Xi: 0 Xe: 0.5078

Consider `CCC(C)O` (stereo not shown) [2-BuOH, 2-butanol], for which, in series [1], the R-value was determined as 2.3.
Take `[Cl][Al]([Cl])[Cl]` [AlCl3, aluminum chloride]: the “R value (MIBK:aq)” value in series [2] was found to be 1.1.
The same measure, in the same setting: the result for `[Cl][Fe]([Cl])[Cl]` [FeCl3] reads 1.1.
`O=S(=O)([O-])[O-].[K+].[K+]` [K2SO4, potassium sulphate]: the “R value (MIBK:aq)” value in series [2] amounted to 1.5.
For the compound `[Br-].[K+]` [KBr, potassium bromide], the “R value (MIBK:aq)” value in series [2] turned out to be 0.9.
For the compound `[Cl-].[K+]` [KCl, potassium chloride], the Activity in series [3] (Column 4: 63.78 g/l KCl, time 18.17 h) is 398.12 IGIU/g; in series [3] (Column 4: 63.78 g/l KCl, time 46.17 h) it was 410.62 IGIU/g; in series [3] (Column 4: 63.78 g/l KCl, time 66.67 h) it was 411.97 IGIU/g; in series [3] (Column 4: 63.78 g/l KCl, time 138.67 h), 415.42 IGIU/g; in series [3] (Column 4: 63.78 g/l KCl, time 163.50 h) it was 429.63 IGIU/g; in series [3] (Column 4: 63.78 g/l KCl, time 211.50 h), 448.90 IGIU/g. For the same compound, the Activity in series [3] (Column 4: 63.78 g/l KCl, time 233.83 h) is on record as 469.08 IGIU/g; in series [3] (Column 4: 63.78 g/l KCl, time 309.25 h), 468.47 IGIU/g; in series [3] (Column 4: 63.78 g/l KCl, time 331.42 h) it was 469.21 IGIU/g; in series [3] (Column 4: 63.78 g/l KCl, time 378.83 h), 443.80 IGIU/g; in series [3] (Column 4: 63.78 g/l KCl, time 474.42 h), 430.17 IGIU/g; in series [3] (Column 4: 63.78 g/l KCl, time 498.33 h), 428.76 IGIU/g. The Activity in series [3] (Column 4: 63.78 g/l KCl, time 522.25 h) is listed as 418.17 IGIU/g; in series [3] (Column 4: 63.78 g/l KCl, time 547.33 h) it was 437.40 IGIU/g; in series [3] (Column 4: 63.78 g/l KCl, time 569.17 h) it was 438.97 IGIU/g; in series [3] (Column 4: 63.78 g/l KCl, time 641.92 h) it was 455.49 IGIU/g; in series [3] (Column 4: 63.78 g/l KCl, time 669.67 h) it was 426.01 IGIU/g. Besides, the “glucose isomerase performance at high salt concentration” value (from here on “glucose isomerase performance”) in series [3] is “comparable with a normal glucose substrate”. The “stability of Sweetzyme™ in the presence of the salt” value (“stability of Sweetzyme™” below) in series [3] is reported as “good stability”. Moreover, in series [2], the “R value (MIBK:aq)” value is 1.0.
Turning to `[I-].[K+]` [KI, potassium iodine], the “R value (MIBK:aq)” value in series [2] is 0.7.
On the same count and under the same terms, as for `O=[N+]([O-])[O-].[K+]` [KNO3, potassium nitrate], the figure is 0.8.
The same measure, in the same setting: as for `[Br-].[Li+]` [LiBr, lithium bromide], the figure is 1.0; as for `[Cl-].[Li+]` [LiCl, lithium chloride], 1.1; as for `O=[N+]([O-])[O-].[Li+]` [LiNO3, lithium nitrate], 0.9.
For `CC(=O)CC(C)C` [MIBK, methyl-isobutylketone], in series [1], the R-value is 1.0.
Turning to `[Cl-].[Cl-].[Mg+2]` [MgCl], the “R value (MIBK:aq)” value in series [2] is given as 1.1.
Consider `O=S(=O)([O-])[O-].[Mg+2]` [MgSO4, Magnesium sulfate], for which the Activity came out at 412.41 IGIU/g in series [3] (Column 6: 102.98 g/l MgSO4, time 17.50 h); 420.62 IGIU/g in series [3] (Column 6: 102.98 g/l MgSO4, time 45.50 h); 419.46 IGIU/g in series [3] (Column 6: 102.98 g/l MgSO4, time 66.00 h); 428.95 IGIU/g in series [3] (Column 6: 102.98 g/l MgSO4, time 138.00 h); 436.79 IGIU/g in series [3] (Column 6: 102.98 g/l MgSO4, time 162.83 h); 452.92 IGIU/g in series [3] (Column 6: 102.98 g/l MgSO4, time 186.83 h). In addition, the Activity in series [3] (Column 6: 102.98 g/l MgSO4, time 210.83 h) is listed as 465.04 IGIU/g; in series [3] (Column 6: 102.98 g/l MgSO4, time 233.17 h), 424.51 IGIU/g; in series [3] (Column 6: 102.98 g/l MgSO4, time 308.58 h), 370.47 IGIU/g; in series [3] (Column 6: 102.98 g/l MgSO4, time 330.75 h), 366.35 IGIU/g; in series [3] (Column 6: 102.98 g/l MgSO4, time 378.17 h), 324.95 IGIU/g; in series [3] (Column 6: 102.98 g/l MgSO4, time 473.75 h), 306.53 IGIU/g. The Activity in series [3] (Column 6: 102.98 g/l MgSO4, time 497.67 h) is 298.41 IGIU/g; in series [3] (Column 6: 102.98 g/l MgSO4, time 521.58 h), 299.60 IGIU/g; in series [3] (Column 6: 102.98 g/l MgSO4, time 568.50 h), 310.87 IGIU/g.
As to `O=S(=O)([O-])[O-].[Na+].[Na+]` [Na2SO4, sodium sulphate], the Activity in series [3] (Column 5: 61.08 g/l Na2SO4, time 17.83 h) amounted to 418.97 IGIU/g; in series [3] (Column 5: 61.08 g/l Na2SO4, time 45.83 h), 433.23 IGIU/g; in series [3] (Column 5: 61.08 g/l Na2SO4, time 66.33 h), 432.90 IGIU/g; in series [3] (Column 5: 61.08 g/l Na2SO4, time 138.33 h), 427.76 IGIU/g; in series [3] (Column 5: 61.08 g/l Na2SO4, time 163.17 h), 439.97 IGIU/g; in series [3] (Column 5: 61.08 g/l Na2SO4, time 187.17 h) it was 449.17 IGIU/g. In addition, the Activity in series [3] (Column 5: 61.08 g/l Na2SO4, time 211.17 h) was determined as 437.81 IGIU/g; in series [3] (Column 5: 61.08 g/l Na2SO4, time 233.50 h), 449.65 IGIU/g; in series [3] (Column 5: 61.08 g/l Na2SO4, time 308.92 h), 437.45 IGIU/g; in series [3] (Column 5: 61.08 g/l Na2SO4, time 331.08 h), 437.38 IGIU/g; in series [3] (Column 5: 61.08 g/l Na2SO4, time 378.50 h), 429.47 IGIU/g; in series [3] (Column 5: 61.08 g/l Na2SO4, time 474.08 h), 381.79 IGIU/g. Moreover, the Activity in series [3] (Column 5: 61.08 g/l Na2SO4, time 498.00 h) is recorded as 387.83 IGIU/g; in series [3] (Column 5: 61.08 g/l Na2SO4, time 521.92 h), 382.13 IGIU/g; in series [3] (Column 5: 61.08 g/l Na2SO4, time 547.00 h), 394.91 IGIU/g; in series [3] (Column 5: 61.08 g/l Na2SO4, time 568.83 h), 393.80 IGIU/g; in series [3] (Column 5: 61.08 g/l Na2SO4, time 641.58 h), 376.25 IGIU/g; in series [3] (Column 5: 61.08 g/l Na2SO4, time 669.33 h) it was 370.35 IGIU/g. Also, the “glucose isomerase performance” value in series [3] is “comparable with a normal glucose substrate”. Also, the “stability of Sweetzyme™” value in series [3] is “good stability”. Further, the “R value (MIBK:aq)” value in series [2] is on record as 1.7.
Regarding `[Br-].[Na+]` [NaBr, sodium bromide], the “R value (MIBK:aq)” value in series [2] is 0.9.
On to `[Cl-].[Na+]` [NaCl, sodium chloride], for which the Activity is recorded as 431.74 IGIU/g in series [3] (50 g/l NaCl, time 19.25 h); 438.80 IGIU/g in series [3] (50 g/l NaCl, time 47.25 h); 438.50 IGIU/g in series [3] (50 g/l NaCl, time 67.75 h); 425.49 IGIU/g in series [3] (50 g/l NaCl, time 139.75 h); 471.33 IGIU/g in series [3] (50 g/l NaCl, time 164.58 h); 469.46 IGIU/g in series [3] (50 g/l NaCl, time 188.58 h). Further, the Activity was determined as 451.52 IGIU/g in series [3] (50 g/l NaCl, time 212.58 h); 468.84 IGIU/g in series [3] (50 g/l NaCl, time 234.92 h); 466.38 IGIU/g in series [3] (50 g/l NaCl, time 310.33 h); 468.14 IGIU/g in series [3] (50 g/l NaCl, time 332.50 h); 449.12 IGIU/g in series [3] (50 g/l NaCl, time 379.92 h); 446.72 IGIU/g in series [3] (50 g/l NaCl, time 475.50 h). For the same compound, the Activity was determined as 445.83 IGIU/g in series [3] (50 g/l NaCl, time 499.42 h); 439.69 IGIU/g in series [3] (50 g/l NaCl, time 523.33 h); 436.34 IGIU/g in series [3] (50 g/l NaCl, time 548.42 h); 436.11 IGIU/g in series [3] (50 g/l NaCl, time 570.25 h); 446.01 IGIU/g in series [3] (50 g/l NaCl, time 643.00 h); 435.86 IGIU/g in series [3] (50 g/l NaCl, time 670.75 h). The “glucose isomerase performance” value in series [3] is “further stabilised”. Further, in series [3], the “stability of Sweetzyme™” value is “good stability”. For the same compound, the “R value (MIBK:aq)” value in series [2] stood at 1.0.
On to `O=[N+]([O-])[O-].[Na+]` [NaNO3, sodium nitrate], for which, in series [2], the “R value (MIBK:aq)” value is recorded as 0.9.
